Test results as given in ChEMBL document CHEMBL1151896, “3D QSAR of novel estrogen-RGD peptide conjugates: getting insight into structural dependence of anti-osteoporosis activity and side effect of estrogen in ERT” (Bioorg Med Chem, 2009).
Numbered stars: 1 amine (or outer) side, 2 acyl side, 3 side chain; on linkers, the order of the positions; unused ones are H or OH. Bridge positions count the residues as written; N and C are the ends. Peptide text beside a SMILES is read from it. I, II: the chains in the order shown. * marks the point of attachment. Estradiol(3-OCH2CO,17-OSuc) = C[C@]12CC[C@@H]3c4ccc(OCC(=O)[*:1])cc4CC[C@H]3[C@@H]1CC[C@@H]2OC(=O)CCC(=O)[*:2]; Succinyl(O17-estradiol) = C[C@]12CC[C@@H]3c4ccc(O)cc4CC[C@H]3[C@@H]1CC[C@@H]2OC(=O)CCC(=O)*; Acetyl(estradiol-3-yloxy) = C[C@]12CC[C@@H]3c4ccc(OCC(=O)*)cc4CC[C@H]3[C@@H]1CC[C@@H]2O; X1 = C[C@]12CC[C@@H]3c4ccc(OCC(=O)*)cc4CC[C@H]3[C@@H]1CCC2=O

Columns and labels:
Mus musculus [1] = assay: Toxicity in ovariectomized ICR mouse assessed as effect on kidney weight at 110.3 nmol/kg, po after 4 weeks; assay type: organism-based; settings: in vivo, 672 h
Mus musculus [2] = assay: Antiosteoporosis activity against ovariectomized ICR mouse assessed as femur ash weight at 110.3 nmol/kg, po after 30 mins; assay type: functional
Mus musculus [3] = assay: Toxicity in ovariectomized ICR mouse assessed as tail bleeding time at 110.3 nmol/kg, po for 90 mins; assay type: organism-based; settings: in vivo, 1.5 h
Mus musculus [4] = assay: Antiosteoporosis activity against ovariectomized ICR mouse assessed as serum phosphorous level at 110.3 nmol/kg, po after 30 mins; assay type: functional
Mus musculus [5] = assay: Antiosteoporosis activity against ovariectomized ICR mouse assessed as femur phosphorous content at 110.3 nmol/kg, po after 30 mins; assay type: functional
Mus musculus [6] = assay: Toxicity in ovariectomized ICR mouse assessed as effect on lung weight at 110.3 nmol/kg, po after 4 weeks; assay type: organism-based; settings: in vivo, 672 h
Mus musculus [7] = assay: Antiosteoporosis activity against ovariectomized ICR mouse assessed as mineral content at 110.3 nmol/kg, po after 30 mins; assay type: functional
Mus musculus [8] = assay: Toxicity in ovariectomized ICR mouse assessed as tail bleeding time at 110.3 nmol/kg, po for 30 mins; assay type: organism-based; settings: in vivo, 0.5 h
Mus musculus [9] = assay: Toxicity in ovariectomized ICR mouse assessed as effect on spleen weight at 110.3 nmol/kg, po after 4 weeks; assay type: organism-based; settings: in vivo, 672 h
Mus musculus [10] = assay: Toxicity in ovariectomized ICR mouse assessed as effect on liver weight at 110.3 nmol/kg, po after 4 weeks; assay type: organism-based; settings: in vivo, 672 h
Mus musculus [11] = assay: Antiosteoporosis activity against ovariectomized ICR mouse assessed as femur length at 110.3 nmol/kg, po after 30 mins; assay type: functional
Mus musculus [12] = assay: Toxicity in ovariectomized ICR mouse assessed as effect on body weight at 110.3 nmol/kg, po after 4 weeks; assay type: organism-based; settings: in vivo, 672 h
Mus musculus [13] = assay: Antiosteoporosis activity against ovariectomized ICR mouse assessed as dry femur weight at 110.3 nmol/kg, po after 30 mins; assay type: functional
Mus musculus [14] = assay: Antiosteoporosis activity against ovariectomized ICR mouse assessed as femur calcium content at 110.3 nmol/kg, po after 30 mins; assay type: functional
Mus musculus [15] = assay: Toxicity in ovariectomized ICR mouse assessed as change in uterine weight at 110.3 nmol/kg, po after 4 weeks; assay type: organism-based; settings: in vivo, 672 h
Mus musculus [16] = assay: Antiosteoporosis activity against ovariectomized ICR mouse assessed as serum ALP activity at 110.3 nmol/kg, po after 30 mins; assay type: functional
Mus musculus [17] = assay: Antiosteoporosis activity against ovariectomized ICR mouse assessed as serum calcium level at 110.3 nmol/kg, po after 30 mins; assay type: functional

SMILES | Activity (Mus musculus [1]) | Activity (Mus musculus [2]) [mg] | Activity (Mus musculus [3]) [s] | Activity (Mus musculus [4]) [mM] | Activity (Mus musculus [5]) [%] | Activity (Mus musculus [6]) | Activity (Mus musculus [7]) [%] | Activity (Mus musculus [8]) [s] | Activity (Mus musculus [9]) | Activity (Mus musculus [10]) | Activity (Mus musculus [11]) [cm] | Activity (Mus musculus [12]) | Activity (Mus musculus [13]) [mg] | Activity (Mus musculus [14]) [%] | Activity (Mus musculus [15]) [g] | Activity (Mus musculus [16]) [U/L] | Activity (Mus musculus [17]) [mM]
C[C@]12CC[C@@H]3c4ccc(OCC(=O)N[C@@H](CCCNC(=N)N)C(=O)NCC(=O)N[C@@H](CC(=O)O)C(=O)N[C@@H](CO)C(=O)N[C@@H](CCCNC(=N)N)C(=O)NCC(=O)N[C@@H](CC(=O)O)C(=O)N[C@@H](CO)C(=O)O)cc4CC[C@H]3[C@@H]1CCC2=O (X1-RGDSRGDS-OH) | Non-toxic | 35.78 | 516 | 2.96 | 21.76 | Non-toxic | 0.62 | 588 | Non-toxic | Non-toxic | 1.67 | Non-toxic | 55.9 | 59.95 | 0.058 | 13.8 | 3.08
CC(C)[C@H](NC(=O)[C@H](CC(=O)O)NC(=O)CNC(=O)[C@H](CCCNC(=N)N)NC(=O)COc1ccc2c(c1)CC[C@@H]1[C@@H]2CC[C@]2(C)[C@@H](O)CC[C@@H]12)C(=O)O ({Acetyl(estradiol-3-yloxy)}-RGDV-OH) |  | 34.29 | 577 |  |  |  | 0.61 | 569 |  |  |  |  |  |  | 0.064 | 26.01 | 3.32
CC(C)[C@H](NC(=O)[C@H](CC(=O)O)NC(=O)CNC(=O)[C@H](CCCNC(=N)N)NC(=O)[C@@H](NC(=O)[C@H](CC(=O)O)NC(=O)CNC(=O)[C@H](CCCNC(=N)N)NC(=O)COc1ccc2c(c1)CC[C@@H]1[C@@H]2CC[C@]2(C)C(=O)CC[C@@H]12)C(C)C)C(=O)O (X1-RGDVRGDV-OH) | Non-toxic | 35.29 | 514 | 3.22 | 21.84 | Non-toxic | 0.62 | 582 | Non-toxic | Non-toxic | 1.66 | Non-toxic | 55.39 | 60.5 | 0.059 | 13.27 | 3
C[C@]12CC[C@@H]3c4ccc(O)cc4CC[C@H]3[C@@H]1CCC2=O [ESTRONE] |  | 32.08 | 433 | 3.13 | 19.11 |  | 0.61 | 411 |  |  | 1.65 |  | 53.03 | 56.2 | 0.114 | 27.97 | 3.35
C[C@]12CC[C@@H]3c4ccc(OCC(=O)N[C@@H](CCCNC(=N)N)C(=O)NCC(=O)N[C@@H](CC(=O)O)C(=O)N[C@@H](CO)C(=O)O)cc4CC[C@H]3[C@@H]1CC[C@@H]2O ({Acetyl(estradiol-3-yloxy)}-RGDS-OH) |  |  | 577 |  |  |  | 0.6 | 582 |  |  | 1.65 |  |  |  | 0.064 | 26.62 | 3.33
C[C@]12CC[C@@H]3c4ccc(OCC(=O)N[C@@H](CCCNC(=N)N)C(=O)NCC(=O)N[C@@H](CC(=O)O)C(=O)N[C@@H](Cc5ccccc5)C(=O)O)cc4CC[C@H]3[C@@H]1CC[C@@H]2OC(=O)CCC(=O)N[C@@H](CCCNC(=N)N)C(=O)NCC(=O)N[C@@H](CC(=O)O)C(=O)N[C@@H](Cc1ccccc1)C(=O)O (I: RGDF-OH / II: RGDF-OH; linker I:N-II:N via Estradiol(3-OCH2CO,17-OSuc)) | Non-toxic | 35.22 | 524 | 3.09 | 21.21 | Non-toxic | 0.61 | 522 | Non-toxic | Non-toxic | 1.62 | Non-toxic | 55.46 | 61.17 | 0.05 | 15.8 | 3.19
CC(C)[C@H](NC(=O)[C@H](CC(=O)O)NC(=O)CNC(=O)[C@H](CCCNC(=N)N)NC(=O)COc1ccc2c(c1)CC[C@@H]1[C@@H]2CC[C@]2(C)C(=O)CC[C@@H]12)C(=O)O (X1-RGDV-OH) |  | 33.99 | 571 | 2.96 | 20.08 |  | 0.61 | 563 |  |  | 1.66 |  | 54.12 | 57.24 | 0.066 | 17.42 | 3.33
C[C@]12CC[C@@H]3c4ccc(OCC(=O)N[C@@H](CCCNC(=N)N)C(=O)NCC(=O)N[C@@H](CC(=O)O)C(=O)N[C@@H](Cc5ccccc5)C(=O)O)cc4CC[C@H]3[C@@H]1CC[C@@H]2O ({Acetyl(estradiol-3-yloxy)}-RGDF-OH) |  | 33.99 | 560 |  |  |  | 0.6 | 557 |  |  | 1.67 |  |  |  | 0.067 | 25.42 | 3.34
C[C@]12CC[C@@H]3c4ccc(OCC(=O)N[C@@H](CCCNC(=N)N)C(=O)NCC(=O)N[C@@H](CC(=O)O)C(=O)N[C@@H](Cc5ccccc5)C(=O)O)cc4CC[C@H]3[C@@H]1CCC2=O (X1-RGDF-OH) |  | 33.85 | 576 | 3.17 | 20.32 |  | 0.59 | 581 |  |  | 1.65 |  | 53.99 | 56.96 | 0.06 | 16.42 | 3.44
C[C@]12CC[C@@H]3c4ccc(OCC(=O)N[C@@H](CCCNC(=N)N)C(=O)NCC(=O)N[C@@H](CC(=O)O)C(=O)N[C@@H](CO)C(=O)O)cc4CC[C@H]3[C@@H]1CCC2=O (X1-RGDS-OH) |  | 34.38 | 568 | 2.98 | 20.44 |  | 0.6 | 579 |  |  | 1.65 |  | 54.29 | 57.76 | 0.069 | 16.62 | 3.33
CC(C)[C@H](NC(=O)[C@H](CC(=O)O)NC(=O)CNC(=O)[C@H](CCCNC(=N)N)NC(=O)CCC(=O)O[C@H]1CC[C@H]2[C@@H]3CCc4cc(O)ccc4[C@H]3CC[C@]12C)C(=O)O ({Succinyl(O17-estradiol)}-RGDV-OH) |  | 34.7 | 560 |  |  |  | 0.61 | 551 |  |  | 1.67 |  |  |  | 0.064 | 22.96 | 3.36
C[C@]12CC[C@@H]3c4ccc(O)cc4CC[C@H]3[C@@H]1CC[C@@H]2OC(=O)CCC(=O)N[C@@H](CCCNC(=N)N)C(=O)NCC(=O)N[C@@H](CC(=O)O)C(=O)N[C@@H](Cc1ccccc1)C(=O)O ({Succinyl(O17-estradiol)}-RGDF-OH) |  | 34.87 | 568 |  |  |  | 0.61 | 576 |  |  |  |  |  | 58.06 | 0.06 | 23.18 | 3.34
C[C@]12CC[C@@H]3c4ccc(O)cc4CC[C@H]3[C@@H]1CC[C@@H]2OC(=O)CCC(=O)N[C@@H](CCCNC(=N)N)C(=O)NCC(=O)N[C@@H](CC(=O)O)C(=O)N[C@@H](CO)C(=O)O ({Succinyl(O17-estradiol)}-RGDS-OH) |  |  | 561 |  |  |  | 0.6 | 575 |  |  | 1.66 |  | 53.98 | 59.14 | 0.063 | 23.93 | 3.35
C[C@]12CC[C@@H]3c4ccc(O)cc4CC[C@H]3[C@@H]1CC[C@@H]2O [ESTRADIOL] |  |  | 441 |  |  |  | 0.61 | 417 |  |  | 1.64 |  |  |  | 0.108 | 27.22 | 3.34
